According to article PMC6624652, “Compound Discovery and Structure-Activity Relationship Study of Neoantimycins Against Drug-Resistant Cancer Cells” (Frontiers in Chemistry, 2019):
Like-named read-outs stand apart in the source and are kept apart here.

Experiments:
[1] = test system: taxol-resistant human colon cancer cell line HCT-8/T; assay: WST-8 (CCK-8) in vitro cytotoxicity test, HCT-8/T; type: cell-based; conditions: read-out: IC50, HCT-8/T
Method: (§1) A WST-8 colorimetric assay (Cell Counting Kit-8, Dojindo) was used to determine the cytotoxicity of the obtained compounds against four human cancer cell lines (human gastric cancer cell line SGC7901, cisplatin-resistant human gastric cancer cell line SGC7901/DDP, human colon cancer cell line HCT-8, and taxol-resistant human colon cancer cell line HCT-8/T) and noncancerous NCM460 colon cell line. Each cell line (100 μL, 5 × 10^4 cells/mL) was inoculated into standard 96-well, flat-bottom microplates, and incubated with DMEM (for HCT-8 and NCM460) or RPMI-1640 (for HCT-8/T, SGC7901, and SGC7901/DDP) medium for 24 h at 37°C in a humidified atmosphere containing 5% CO2. The attached cells were then incubated with serially diluted NATs (1-8). After continuous exposure to the compounds for 72 h, 10 μL CCK-8 solution was added. After 3 h of incubation at 37°C (5% CO2), the absorbance was measured at 450 nm using a microtiter plate reader (SpectraMax 190, Molecular Devices). Cisplatin and taxol (purity ≥ 98% Sigma, USA) were used as positive controls. All studies were performed in triplicate and the IC50 values were calculated using Prism software.

[2] = test system: human gastric cancer cell line SGC7901; assay: WST-8 (CCK-8) in vitro cytotoxicity test, SGC7901; type: cell-based; conditions: read-out: IC50, SGC7901
Method: as §1

HT-29 cell line = test system: HT-29 cell line; set-up: method as in Li et al., 2013; conditions: ref Li et al., 2013; cited from earlier work
[3] = test system: cisplatin-resistant human gastric cancer cell line SGC7901/DDP; assay: WST-8 (CCK-8) in vitro cytotoxicity test, SGC7901/DDP; type: cell-based; conditions: read-out: IC50, SGC7901/DDP
Method: as §1

[4] = test system: human colon cancer cell line HCT-8; assay: WST-8 (CCK-8) in vitro cytotoxicity test, HCT-8; type: cell-based; conditions: read-out: IC50, HCT-8
Method: as §1

KB cells = test system: KB cells; set-up: method as in Takahashi et al., 2001; conditions: ref Takahashi et al., 2001; cited from earlier work
K562 cells = test system: K562 cells; set-up: method as in Takahashi et al., 2001; conditions: ref Takahashi et al., 2001; cited from earlier work
[5] = test system: SGC7901, SGC7901/DDP, HCT-8 and HCT-8/T cell lines; assay: Cytotoxicity summarised over all four cancer cell lines; type: cell-based, human; conditions: for IC50: Homo sapiens, read-out: anti-proliferative activity (IC50 span) against all four cell lines; for fold better anti-proliferative activity in drug-resistant cell lines than in sensitive ones: span over compounds 3, 4, 7, 8; for fold higher activity than corresponding oxidized forms (3 and 4): in vitro, span over four cell lines
Method: as §1

[6] = test system: noncancerous NCM460 colon cell line; assay: WST-8 (CCK-8) in vitro cytotoxicity test, NCM460; type: cell-based; conditions: Homo sapiens, read-out: IC50, NCM460
Method: as §1

HCT-8 cells [7] = assay: Apoptosis analysis by flow cytometry (Annexin V-FITC/PI); type: cell-based, human; conditions: NAT-A 0.5 μM, 72 h, untreated 7.2 ± 1.1%
Method: An Annexin V-FITC/PI Apoptosis Detection kit I (BD Pharmingen, San Diego, CA, USA) was adopted to examine the cell apoptosis according to the manufacturer's instructions. HCT-8 cells were cultured on a six-well plate (3 × 10^5 cells/well) and allowed to attach for 24 h before treated with NAT-A (0 and 0.5 μM) for 72 h. Then cells were harvested, washed with PBS and resuspended in 1 × binding buffer. Cell suspension (100 μL) was incubated with 5 μL FITC Annexin-V and 5 μL propidium iodide (PI) for 15 min in the dark. Following the incubation, 400 μL 1 × binding buffer was added into each sample before analysis using flow cytometry (Thermo Fisher Scientific, Eugene, Oregon, USA). The lower left section of fluorocytogram (Annexin V-, PI-) represents the normal cells, lower right section of fluorocytogram (Annexin V+, PI-) represents early apoptosis cells, and upper right section of fluorocytogram (Annexin V+, PI+) represents late apoptosis cells.

HCT-8 cells [8] = assay: Cell morphology, DAPI staining; type: cell-based, human; conditions: 72 h
Method: HCT-8 cells were seeded in 12-well plates at a density of 1 × 10^5 cells per well. After overnight adherence, they were exposed to the indicated concentration of NAT-A for 72 h. After that, the cells were washed with PBS and fixed 4% paraformaldehyde for 30 min at room temperature. After washing with PBS, the cells were stained with DAPI (100 ng/mL) for 15 min in the dark and photographed using a fluorescence microscope (Nikon, Japan).

GRP78 = test system: GRP78; set-up: method as in Izumikawa et al., 2007; conditions: ref Izumikawa et al., 2007; cited from earlier work
[9] = Homo sapiens, HCT-8, taxol-resistant, 72 h exposure, CCK-8, mean ± SD, n = 3
[10] = Homo sapiens, HCT-8, 72 h exposure, CCK-8, mean ± SD, n = 3
[11] = 72 h exposure, CCK-8, mean ± SD, n = 3

In the case of `CC(C)[C@@H]1OC(=O)[C@@H](NC(=O)c2cccc(N)c2O)[C@@H](C)OC(=O)[C@H](C(C)C)OC(=O)C(C)(C)[C@@H](O)[C@@H](Cc2ccccc2)OC1=O` [Compound 6, Neoantimycin E], the IC50 ([1]; Homo sapiens, HCT-8, 72 h) is listed as > 20000 nM, the IC50 ([2]; Homo sapiens, SGC-7901, 72 h) is listed as 1770 nM and the “antiproliferative activity against HT-29 cell line” value (shortened to “antiproliferative activity”) (HT-29 cell line) is listed as “hardly had any significant antiproliferative activity”. For the same molecule, the IC50 ([3]; Homo sapiens, SGC-7901, 72 h) was > 20000 nM and the IC50 ([4]; Homo sapiens, HCT-8, 72 h) was 13100 nM.

For `CCC(C)C1OC(=O)C(C)(C)C(O)C(Cc2ccccc2)OC(=O)C(C)OC(=O)C(NC(=O)c2cccc(NC=O)c2O)C(C)OC1=O` (stereo not shown) [SW-163 A], the “cytotoxicity against KB cells” value (KB cells) is listed as “no cytotoxicity” and the “cytotoxicity against K562 cells” value (K562 cells) is listed as “no cytotoxicity”.

With `CC(C)[C@@H]1OC(=O)[C@@H](NC(=O)c2cccc(NC=O)c2O)[C@@H](C)OC(=O)[C@H](C(C)C)OC(=O)C(C)(C)C(=O)[C@@H](Cc2ccccc2)OC1=O` [Compound 4, Neoantimycin I] the IC50 ([1]; Homo sapiens, HCT-8, 72 h) was 32.6 ± 4.2 nM, the IC50 [5] was 1.5 to 523 nM and the “fold better anti-proliferative activity in drug-resistant cell lines than in sensitive ones” value (“fold better anti-proliferative activity” below) [5] was 5.2~33.5 fold. It also gave an IC50 ([2]; Homo sapiens, SGC-7901, 72 h) of 179 ± 18.3 nM, an IC50 ([3]; Homo sapiens, SGC-7901, 72 h) of 15.7 ± 1.6 nM and an IC50 ([4]; Homo sapiens, HCT-8, 72 h) of 233 ± 20.1 nM. For the same molecule, the IC50 ([6]; NCM460, 72 h) was > 50000 nM.

For `CC[C@H](C)[C@@H]1OC(=O)C(C)(C)[C@@H](O)[C@@H](Cc2ccccc2)OC(=O)[C@H](C(C)C)OC(=O)[C@@H](NC(=O)c2cccc(N)c2O)[C@@H](C)OC1=O` [Compound 5, Neoantimycin D], the IC50 ([1]; Homo sapiens, HCT-8, 72 h) is given as > 20000 nM, the IC50 ([2]; Homo sapiens, SGC-7901, 72 h) is given as 10200 nM and the “antiproliferative activity” value (HT-29 cell line) is given as “hardly had any significant antiproliferative activity”. For the same molecule, the “cytotoxic activity (cell line not named at b4)” value (HT-29 cell line) was “did not show any cytotoxic activity”, the IC50 ([3]; Homo sapiens, SGC-7901, 72 h) was > 20000 nM and the IC50 ([4]; Homo sapiens, HCT-8, 72 h) was > 20000 nM.

With `CC[C@H](C)[C@@H]1OC(=O)C(C)(C)C(=O)[C@@H](Cc2ccccc2)OC(=O)[C@H](C(C)C)OC(=O)[C@@H](NC(=O)c2cccc(N)c2O)[C@@H](C)OC1=O` [Compound 1, Neoantimycin J] the IC50 ([1]; Homo sapiens, HCT-8, 72 h) was > 20000 nM, the IC50 ([2]; Homo sapiens, SGC-7901, 72 h) was > 20000 nM and the IC50 ([3]; Homo sapiens, SGC-7901, 72 h) was > 20000 nM. The IC50 ([4]; Homo sapiens, HCT-8, 72 h) was > 20000 nM.

For `CC[C@H](C)[C@@H]1OC(=O)C(C)(C)[C@@H](O)[C@@H](Cc2ccccc2)OC(=O)[C@H](C(C)C)OC(=O)[C@@H](NC(=O)c2cccc(NC=O)c2O)[C@@H](C)OC1=O` [Compound 7, Neoantimycin A], the IC50 [1, 9] was 2 ± 0.1 nM, the IC50 ([5]; span over compounds 3, 4, 7, 8 and four cell lines) was 1.5 to 523 nM and the “fold higher activity than corresponding oxidized forms (3 and 4)” value [5] was 1.2~13 fold. The “fold better anti-proliferative activity” value [5] was 5.2~33.5 fold, the “percentage of apoptotic cells (Annexin V/PI)” value (HCT-8 cells [7]) was 25.9 ± 0.7% and the “nuclear morphology after DAPI staining” value (HCT-8 cells [8]) was “nuclear shrinkage, DNA fragments as well as chromatin condensation”. For the same molecule, the IC50 ([2]; Homo sapiens, SGC-7901, 72 h exposure, CCK-8, mean ± SD, n = 3) was 24.5 ± 3.3 nM, the IC50 ([3]; Homo sapiens, SGC-7901, cisplatin-resistant, 72 h exposure, CCK-8, mean ± SD, n = 3) was 1.5 ± 0.1 nM and the IC50 [4, 10] was 66.9 ± 5.7 nM. For the same molecule, the IC50 ([6]; NCM460, noncancerous colon cell, 72 h exposure, CCK-8, mean ± SD, n = 3) was > 50000 nM.

With `CC[C@H](C)[C@@H]1OC(=O)C(C)(C)C(=O)[C@@H](Cc2ccccc2)OC(=O)[C@H](C(C)C)OC(=O)[C@@H](NC(=O)c2cccc(NC=O)c2O)[C@@H](C)OC1=O` [Compound 3, Neoantimycin H] the IC50 ([1]; Homo sapiens, HCT-8, 72 h) was 26.6 ± 1.5 nM, the IC50 [5] was 1.5 to 523 nM and the “fold better anti-proliferative activity” value [5] was 5.2~33.5 fold. The IC50 ([2]; Homo sapiens, SGC-7901, 72 h) was 104 ± 22.7 nM, the IC50 ([3]; Homo sapiens, SGC-7901, 72 h) was 12.2 ± 4.6 nM and the IC50 ([4]; Homo sapiens, HCT-8, 72 h) was 523 ± 104 nM. It also gave an IC50 ([6]; NCM460, 72 h) of 115 ± 18.7 nM.

In the case of `CC(C)[C@@H]1OC(=O)[C@@H](NC(=O)c2cccc(N)c2O)[C@@H](C)OC(=O)[C@H](C(C)C)OC(=O)C(C)(C)C(=O)[C@@H](Cc2ccccc2)OC1=O` [Compound 2, Neoantimycin K], the IC50 ([1]; Homo sapiens, HCT-8, 72 h) is reported as > 20000 nM, the IC50 ([2]; Homo sapiens, SGC-7901, 72 h) is reported as > 20000 nM and the IC50 ([3]; Homo sapiens, SGC-7901, 72 h) is reported as > 20000 nM. For the same molecule, the IC50 ([4]; Homo sapiens, HCT-8, 72 h) was > 20000 nM.

In the case of `CC(C)[C@@H]1OC(=O)[C@@H](NC(=O)c2cccc(NC=O)c2O)[C@@H](C)OC(=O)[C@H](C(C)C)OC(=O)C(C)(C)[C@@H](O)[C@@H](Cc2ccccc2)OC1=O` [Compound 8, Neoantimycin F], the IC50 ([1]; Homo sapiens, HCT-8, 72 h) is reported as 26.1 ± 0.1 nM, the IC50 [5] is reported as 1.5 to 523 nM and the “fold higher activity than corresponding oxidized forms (3 and 4)” value [5] is reported as 1.2~13 fold. The “fold better anti-proliferative activity” value [5] was 5.2~33.5 fold, the IC50 ([2]; Homo sapiens, SGC-7901, 72 h) was 98.5 ± 32.6 nM and the “antiproliferative activity” value (HT-29 cell line) was “hardly had any significant antiproliferative activity”. The IC50 ([3]; Homo sapiens, SGC-7901, 72 h) was 6.4 ± 0.5 nM, the IC50 ([4]; Homo sapiens, HCT-8, 72 h) was 136 ± 18.2 nM and the IC50 ([6]; NCM460, 72 h) was > 50000 nM.

In the case of `CC(=O)O[C@H]1C(=O)[C@@]2(C)[C@H]([C@H](OC(=O)c3ccccc3)[C@]3(O)C[C@H](OC(=O)[C@H](O)[C@@H](NC(=O)c4ccccc4)c4ccccc4)C(C)=C1C3(C)C)[C@]1(OC(C)=O)CO[C@@H]1C[C@@H]2O` [taxol, reference compound], the IC50 [1, 9] is reported as > 20000 nM and the IC50 [4, 10] is reported as 2520 nM.

In the case of `N.N.[Cl][Pt][Cl]` [cisplatin, reference compound], the IC50 ([1]; taxol-resistant, 72 h exposure, CCK-8, mean ± SD, n = 3) is reported as > 20000 nM, the IC50 [2, 11] is reported as 2560 nM and the IC50 ([3]; cisplatin-resistant, 72 h exposure, CCK-8, mean ± SD, n = 3) is reported as 5670 nM. For the same molecule, the IC50 [4, 11] was 9490 nM.

In the case of `CC[C@H](C)[C@@H]1OC(=O)C(C)(C)[C@@H](O)[C@@H](Cc2ccccc2)OC(=O)[C@H](C)OC(=O)[C@@H](NC(=O)c2cccc(N)c2O)[C@H](C)OC1=O` [JBIR-05], the “expression of GRP78” value (GRP78) is listed as “inhibited the expression of GRP78”.
